Here are results for one molecule from patent US20210283110A1, “COMPOUND FOR USE IN THE TREATMENT OF A DISEASE CHARACTERIZED BY DYSREGULATED MUCUS PRODUCTION AND/OR SECRETION” (UNIVERSITÄT REGENSBURG, priority 2018, published 2021).

Each structure is given as a SMILES string. “Also recorded” adds a separate entry of the source.

For assay [1], the system named is Calu3 human airway epithelial cells. Briefly: IL-13 induced MUC5AC expression in Calu3 cells. In kind it is cell-based. Conditions: IL-13 stimulation. On the procedure:
(§1) Mouse models were performed according to the previous example. For investigating mucus, IL-8 release, and leukocytes, tissues were fixed using 4% paraformaldehyde (PFA), 0.2% picric acid and 3.4% sucrose in PBS and washed in methanol before embedding in paraffin. Mucus was analyzed using standard Periodic acid-Schiff (PAS) or alcian blue staining. MUC5AC was stained using anti-MUC5AC mouse antibody (1:200, Abcam, ab3649) and a secondary antibody conjugated with Alexa488 (Life Technologies, A-21206). Nuclei were stained with Hoe33342 (0.1 μg/ml PBS, Aplichem, Darmstadt, Germany). Quantikine ELISA kits (R&D systems) were used to measure secretion of the cytokine IL-8 by Calu3 cells.
(§2) Calu3 airway epithelial cells were exposed to LPS for 48 hrs and the release of the neutrophil attractor interleukin 8 (IL-8) was measured. […] Upon stimulation with the Th2 cytokine IL-13, Calu3 cells produced MUC5AC. […] Taken together, airway epithelial knockout of TMEM16A caused a defect in mucus secretion, while mucus production was retained (FIG. 16C).

Assay [2] relates to Calu3 airway epithelial cells. Briefly: LPS-induced IL-8 release by Calu3 cells (ELISA). In kind it is cell-based, human. Conditions: Calu3 cells exposed to LPS for 48 hrs. As to the method:
as §1, §2

A further assay concerns the target T1, TMEM16A (Homo sapiens, UniProt Q5XXA6).
T1 sequence (Q5XXA6 1-986): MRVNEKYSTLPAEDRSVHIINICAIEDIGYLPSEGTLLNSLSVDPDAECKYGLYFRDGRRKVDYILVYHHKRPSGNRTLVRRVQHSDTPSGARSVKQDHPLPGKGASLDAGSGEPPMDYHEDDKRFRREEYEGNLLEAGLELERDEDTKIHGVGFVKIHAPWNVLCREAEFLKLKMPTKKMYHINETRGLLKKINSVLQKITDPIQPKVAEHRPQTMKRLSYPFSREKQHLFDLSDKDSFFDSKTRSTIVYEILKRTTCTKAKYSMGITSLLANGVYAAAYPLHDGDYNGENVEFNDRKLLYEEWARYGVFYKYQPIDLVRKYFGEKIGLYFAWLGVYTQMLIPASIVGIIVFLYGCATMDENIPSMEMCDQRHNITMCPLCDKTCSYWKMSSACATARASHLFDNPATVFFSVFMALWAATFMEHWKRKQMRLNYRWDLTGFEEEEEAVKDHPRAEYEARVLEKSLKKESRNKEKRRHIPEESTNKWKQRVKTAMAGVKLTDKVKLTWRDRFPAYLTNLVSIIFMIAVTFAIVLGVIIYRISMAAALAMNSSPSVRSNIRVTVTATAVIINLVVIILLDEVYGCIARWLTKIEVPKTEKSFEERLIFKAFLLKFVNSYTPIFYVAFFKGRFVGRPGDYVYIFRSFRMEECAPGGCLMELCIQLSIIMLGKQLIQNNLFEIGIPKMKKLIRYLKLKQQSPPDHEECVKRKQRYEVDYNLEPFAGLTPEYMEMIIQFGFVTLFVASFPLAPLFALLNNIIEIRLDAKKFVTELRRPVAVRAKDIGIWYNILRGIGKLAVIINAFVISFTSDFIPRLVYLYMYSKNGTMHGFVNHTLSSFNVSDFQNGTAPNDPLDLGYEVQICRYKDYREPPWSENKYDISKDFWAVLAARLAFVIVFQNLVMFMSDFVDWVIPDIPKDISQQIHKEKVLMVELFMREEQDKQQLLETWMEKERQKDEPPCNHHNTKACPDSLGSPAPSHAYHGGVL
In words: Whole cell currents in HEK293 cells expressing TMEM16A (patch clamp). In kind it is cell-based. To be noted: overexpressing HEK293 cells; UTP 100 μM. Details: expressed in transfected cells; host or cells: HEK293 cells. As to the method: FIG. 14: The TMEM16-inhibitor niflumic acid attenuates inflammatory airway disease. • A,B) OVA-sensitization induced pronounced goblet cell metaplasia as indicated by alcian blue positivity. Exposure to carbachol (CCH, 25 mg/ml, nebulizer) induced release of mucus and airway […]. Bars indicate […]. […] Mean±SEM; *significant inhibition by NFA (paired ttest). # significant difference when compared to OVA (unpaired t-test). (n) number of airways analysed or number of cells examined.
FIG. 15: Inhibition of TMEM16A and TMEM16F by niclosamide. • A) TMEM16A whole cell currents in overexpressing HEK293 cells. […]
OVA-induced allergic airway inflammation in mice caused pronounced airway goblet cell metaplasia. […] The two main TMEM16 paralogs expressed in airway epithelial and smooth muscle cells, TMEM16A and TMEM16F, were expressed in HEK293 cells and the whole cell currents upon activation by the Ca^2+ ionophore ionomycin (Iono) were measured. […]
Similar to TMEM16A, also overexpressed TMEM16F was inhibited by niclosamide (FIG. 15D). […] TMEM16A was activated by ionomycin and TMEM16A currents were measured as iodide quenching.
On the technique in general: The patch-clamp technique gives a direct electrical read-out from membranes.

In the case of `O=C(Nc1ccc([N+](=O)[O-])cc1Cl)c1cc(Cl)ccc1O` [niclosamide, 5-chloro-N-(2-chloro-4-nitrophenyl)-2-hydroxybenzamide], the Muc5AC-expression result in assay [1] is “largely reduced”. Besides, the IL-8 release entry in assay [2] was “clearly inhibited”. Besides, the “TMEM16A outward currents activated by purinergic stimulation” value at TMEM16A was “inhibitory effect; also recorded: Concentration-dependent inhibition”.
